Assay results taken from patent US20050222041A1, “Ncam binding compounds” (ENKAM Pharmaceuticals A/S, priority 2001, published 2005).
Where “and” joins values, the source holds several entries; their conditions need not be identical. Equal entries are not always repeated. Where two headings read alike, the source gives them in different places. Ends that are not written are not given here.

Legend:
[1] = test system: NBP10-induced neurite outgrowth; test: Inhibition of NBP10d-induced neurite outgrowth by inhibitors of NCAM-dependent signal transduction; type: cell-based, rat
[2] = test system: primary hippocampal neurons; test: Neurite outgrowth in dissociated cultures of primary hippocampal neurons on plastic; type: cell-based, rat; conditions: for concentration of maximal effect on neurite outgrowth: bell shaped dose-response
Procedure: (§1) Dissociated hippocampal cells prepared from rat embryos gestational day 18 were seeded in microwell plates 50,000 cells in 15 μl of medium per well as previously described (Maar et al., 1997)(Rønn et al., 1999). All animals were handled in accordance with the national guidelines for animal welfare. Cells were grown in Neurobasal medium supplemented with B27, 20 mM HEPES, penicillin (100 U/ml), streptomycin (100 μg/ml) and 0.4% w/v bovine serum albumin. After 24 h in culture, the number of aggregates per well was determined. For analysis of neurite outgrowth, 5,000 cells/well were seeded in 8 well LabTek Tissue Culture Chamber Slides with a growth surface of Permanox plastic. After 24 h, images of neurons were captured and analysed by means of computer-assisted microscopy as described (Rønn et al., 2000).
The effect of NBP10 in dissociated cultures of primary hippocampal neurons grown on a plastic substratum were examined.

[3] = test system: hippocampal cells; test: Cell aggregation in primary hippocampal aggregate cultures; type: cell-based, rat; conditions: 24 h
Procedure: A variety of suitable compounds have been discussed above. To test the function of the NCAM binding molecule, the inventors have established a simple cell culture system (aggregate cell cultures) that permits a quantitative evaluation of the effect of various ligands. Hippocampal cells are provided from rat embryos. The cells are grown in a defined medium and dissociated cells are seeded in microtiter plates. After 24 h, the amount of aggregates are counted. Compounds to be tested are added to the cell suspension immediately before seeding of the cells in micro-wells. When NCAM binding compounds are present during the aggregation of cells, smaller, but more numerous cell aggregates are seen when quantified 24 h after seeding of the cells. The inhibiting effect of the ligands results in a blockage of the formation of large aggregates from many small aggregates as the adhesion properties of NCAM are blocked. Thus, small but more numerous cell aggregates are seen in the presence of active ligands. Such an effect is due to the presence of different compounds of the invention during the aggregation of cells. The system allows for the examination of disaggregation of the treated cells.
as §1, with “For analysis of neurite outgrowth, 5,000 cells/well were seeded in 8 well LabTek Tissue Culture Chamber Slides with a growth surface of Permanox plastic.” left out
An important function of NCAM is mediation of cell adhesion. […] The effect of NBP10 on cell aggregation was only quantified at low concentrations of the peptide (FIG. 1CD). […] Under these conditions, the number of aggregates could not be quantified. […]

[4] = test system: PC12E2 cells; test: Fura-2 calcium imaging in PC12E2 cells; type: cell-based; conditions: lower concentrations than 50 μM
Procedure: The PC12-E2 cell line was a generous gift from Dr. Klaus Seedorf, Hagedorn Research Institute, Denmark. Cells were grown in DMEM supplemented with 5% v/v FBS and 10% v/v horse serum (HS). For calcium imaging, PC12E2 cells were dislodged mechanically by tapping and seeded at a density of 5-30,000 cells/cm^2 in 4 or 8 well LabTek chambered cover-slides (NUNC) with a growth surface of plastic coated with fibronectin (10 μg/ml) and grown for 1 to 5 days. In some cases, neuronal differentiation was induced by changing the medium to DMEM supplemented with 1% v/v FBS, 1% v/v HS and NGF (50 ng/ml) or FGF-2 (10 ng/ml).
Cells were washed in HANK's solution comprising KCl (5.4 mM), NaCl (137 mM), NaHCO3 (2 mM), MgSO4 (0.8 mM), Na2HPO4 (0.27 mM), Glucose (5.6 mM), CaCl2 (1.25 mM), KH2PO4 (0.44 mM) and loaded with fura-2 acetomethyl ester (Fura-2 AM, 2 μM, Molecular Probes, Eugene, Oreg., USA) dissolved in Dimethyl Sulfoxide (DMSO) for 35 min at 20° C. in the dark. Hereafter, cells were washed four times and placed on the stage of an inverted Axiovert 100 TV microscope (Zeiss, Göttingen, Germany) equipped with an oil immersion UV objective (Zeiss Fluar 40×, 1.3 numerical aperture). […] Rmax was determined in situ using Fura-2 AM loaded cells in the presence of ionomycin (5 μM) and high extracellular calcium (10 mM). Values determined were: Rmax 9.0; Rmin 0.68; F380max/F380min 7.0. […]

[5] = biological target: NCAM on primary hippocampal neurons from rat embryos (rat) (UniProt P13596); test: cell-based or functional assay
[6] = NBP10d 1 μM, inhibitor concentration not given

For Cc1ccc(-c2nn(C(C)(C)C)c3ncnc(N)c23)cc1 [PP1], the “effect on NBP10-induced neurite outgrowth” value [1, 6] was “partially inhibited”.

COc1cccc(-c2cc(=O)c3ccccc3o2)c1N [PD98059] was tested, and the “effect on NBP10-induced neurite outgrowth” value ([1]; NBP10d 1 μM, inhibitor 10 μM) was “partially inhibited”.

With C[S+]([O-])c1ccc(-c2nc(-c3ccncc3)c(-c3ccc(F)cc3)[nH]2)cc1 (stereo not shown) [SB203580] the “effect on NBP10-induced neurite outgrowth” value ([1]; NBP10d 1 μM, inhibitor 1 μM) was “partially inhibited”.

For CCN(CC)CCCCCCCCOC(=O)c1cc(OC)c(OC)c(OC)c1.Cl [TMB-8, 8-(N,N-diethylamino)octyl-3,4,5-trimethoxybenzoate hydrochloride], the “effect on NBP10-induced neurite outgrowth” value [1, 6] was “complete inhibition”.

“AKKMWKKTW [NBP10m, monomeric NBP10 peptide]” was tested, and the “shape of dose-response relationship for neurite outgrowth” value [2] was “bell shaped”, the “concentration of maximal effect on neurite outgrowth” value [2] was about 100 µM and the “concentration of maximal effect on neurite outgrowth” value ([2]; listed as monomer) was 1.00 µM. For the same molecule, the “effect on neurite outgrowth” value ([2]; dose-response, 24 h, plastic substratum) was “stimulated neurite outgrowth”, the “concentration at which cultures had no distinct cell aggregates” value [3] was 200 µM and the “concentration inducing formation of small but distinct aggregates” value [3] was 60 µM. For the same molecule, the “effect on cell aggregation” value [3] was “inhibited cell aggregation”.

With ω-conotoxin MVIIA the “effect on NBP10-induced neurite outgrowth” value [1] was “partial inhibition”.

With “AKKMWKKTW (listed as Rattus rattus) [NBP10]” the “effect on intracellular calcium” value [4] was “only a fraction of the cells showed detectable increases in intracellular calcium”.

In the case of AKKMWKKTW (peptide, part only, also: four monomers on lysine dendrimer backbone) [NBP10 peptide dendrimer (four NBP10 monomers coupled to a lysine backbone)], the cell aggregation of hippocampal cells, concentration with effect [5] is reported as 1 µM and 2 µM, the neurite outgrowth of dissociated hippocampal neurons, concentration of maximal effect [5] is reported as 1 µM and the cell aggregation, potency against the peptide monomer ([5]; scale: times lower concentration than the monomer) is reported as 50.
